Each structure is given as a SMILES string.

Common to all, as to format: cell-based, human
The subject of one assay is C33A cells. Nature of the assay: MTT anti-proliferation assay, C33A. The settings on record: 48 h, mean ± SD. On the procedure: All cell types, at a volume of 200 µL per well, were inoculated in 96-well plates at a density of 2.5 × 10^4 cells / mL and cultured for 24 h in an incubator with 5% CO2 at 37 °C. The old culture medium was replaced with 200 µL of fresh medium per well containing positive compounds, at concentrations of 1, 6.25, 12.5, 25, 50, and 100 μM. After 48 h of culture, 20 µL per well of 5 mg·mL^−1 MTT solution was added. After 4 h of culture, the old solution was discarded, and 150 µL per well of DMSO solution was added. Using an enzyme labeler (Thermo Fisher Scientific, Multiskan GO, Waltham, MA, USA), the plates were shaken for 10 min, OD values were determined at 490 nm, and the inhibition rate was calculated. Non-linear regression fitting of the cell growth rate was carried out using SPSS 23.0, and the IC50 of the compound was calculated. The inhibition rate was calculated using the formula: [(ODempty − ODtest)/(ODempty − ODnegative group)] × 100%, (ODempty blank group absorbance, ODtest absorbance of administration group, ODnegative group without cell culture medium). Each group contained six compound holes, and the experimental results averaged three trials. Complete medium containing only cells was used as the blank control; a complete medium without cells as was used as the negative control; and cisplatin, paclitaxel, and adriamycin were used as the positive controls. The concentration gradient was the same as that used for compounds 3a–3p.
Background: Formazan colour is commonly taken as a measure of viable cells.

In assay [1] the test system is HeLa cells. The experiment in a line: Cell cycle experiment (PI flow cytometry), HeLa. The settings on record: 24 h. On the procedure:
A 2 mL volume of cell fluid per well at a concentration of 1 × 10^6 cells / mL was inoculated into a 6-well plate and cultured for 24 h. After removing the old solution, 2 mL of the cell culture medium containing 3k was added to each well, and each well was exposed for 24 h to a concentration gradient of 2.5, 5, and 10 μM. The experiment was repeated three times for each concentration. Complete culture medium containing only cells was used as the blank control group, and 20 μM cisplatin and chalcone injection were used as the positive control group. After 24 h of treatment, the cells were collected in a 15 mL centrifuge tube and fixed with 75% ethanol at 4 °C for 24 h. A 400 µL volume of PI/RNase staining buffer (BD Biosciences Pharmingen, 550825, 10975 Torreyana Road, San Diego, CA, USA) was uniformly dispersed and subjected to staining for 15 min at room temperature […]. The sample was subsequently filtered and analyzed using up-flow cytometry (BD, LSRFortessa, New York, NY, USA).
(In flow cytometry, cells or beads pass a laser one at a time.)

Assay [2] concerns HeLa/DDP cells. Nature of the assay: MTT anti-cisplatin-resistant cervical cancer activity, HeLa/DDP. To be noted: for resistance index (RI): HeLa/DDP versus parental HeLa; for resistance index (RI) / IC50: 48 h; for IC50: HeLa/DDP, MTT, mean ± SD.
The test system of assay [3] is HeLa cells. The experiment in a line: Annexin V-FITC/PI pro-apoptosis assay, HeLa. To be noted: 24 h. The protocol: (§1) Cell fluid (2 mL per well) at a concentration of 1.5 × 10^5 cells / mL was added to a 6-well plate and cultured in a cell incubator with 5% CO2 at 37 °C for 24 h. The old solution was discarded; 2 mL of the medium containing compound 3k was added to each well at a concentration gradient of 2.5, 5, and 10 μM; and the experiment was repeated three times at each concentration. Complete medium containing only cells was used as a blank control group, and 20 μM of cisplatin injection and chalcone was used as a positive control. Cells were harvested following a 24 h incubation period, adhering to the guidelines provided with the BD kit (BD Biosciences Pharmingen, 556547, 10975 Torreyana Road, San Diego, CA, USA). Subsequently, the cells were subjected to staining in a light-restricted environment at ambient temperature for a duration of 15 min, followed by filtration and analysis via flow cytometry.

Assay [4] deals with HeLa/DDP cells. Nature of the assay: Annexin V-FITC/PI pro-apoptosis assay, HeLa/DDP. The settings on record: 24 h. The protocol:
as §1
The pro-apoptotic experiments of compound 3k, cisplatin, and chalcone on HeLa/DDP were performed in the same way as in Section 3.3.3. Western Blotting Analysis in the same way as in Section 3.3.4.

Assay [5] concerns HeLa cells. Nature of the assay: MTT anti-proliferation assay, HeLa. To be noted: 48 h, mean ± SD. The method, boiled down:
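HeLa and cisplatin-resistant HeLa/DDP cells were seeded at 2.5 × 10^4 cells/mL, cultured 24 h, then exposed to compounds at 1–100 μM for 48 h. MTT was added for 4 h, formazan dissolved in DMSO, and OD read at 490 nm. IC50 was derived by non-linear regression of inhibition rate, averaged over three trials.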

Consider `N.N.[Cl][Pt][Cl]` [Cisplatin, cisplatin, reference compound], for which the IC50 – broadly, the concentration needed to halve the response being measured – turned out to be 6.05 ± 1.15 µM in the assay on C33A cells, 103 ± 3.6 µM with HeLa/DDP cells [2] and 13 ± 1.82 µM in the assay with HeLa cells [5]. Besides, in the assay on HeLa cells [1] (20 μM, control 52.1%), the “percentage of cells in the G0/G1 phase” value was 73.93%. Besides, the “resistance index (RI)” value in the assay with HeLa/DDP cells [2] was found to be 7.90. For the same compound, the pro-apoptotic rate with HeLa cells [3] (20 μM) is listed as 46.7%; in the assay on HeLa/DDP cells [4] (20 μM), 15.0%.

For `COc1ccc(/C=C(\C)C(=O)c2ccc(Cl)c(Cl)c2)cc1OC` [Compound 3k, (E)-1-(3,4-Dichlorophenyl)-3-(3,4-dimethoxyphenyl)-2-methylprop-2-en-1-one], the IC50 in the assay with C33A cells (Homo sapiens, C-33-A) was determined as 12.1 ± 2.44 µM; with HeLa/DDP cells [2] (Homo sapiens), 9.72 ± 0.73 µM; in the assay with HeLa cells [5] (Homo sapiens), 9.05 ± 0.53 µM. In addition, the “blocking rate at the G2/M phase” value in the assay on HeLa cells [1] (2.5 μM) was 14.04%; in the assay with HeLa cells [1] (5 μM), 22.84%; in the assay on HeLa cells [1] (10 μM), 40.18%. In addition, the “resistance index (RI)” value in the assay on HeLa/DDP cells [2] came out at 1.07. For the same compound, the “inhibition rate against HeLa/DDP cell lines” value with HeLa/DDP cells [2] (HeLa/DDP, 0.25, 0.5, or 1 μM) is “less than 10%”. The pro-apoptotic rate is 29.6% in the assay with HeLa cells [3] (2.5 μM); 47.2% in the assay with HeLa cells [3] (5 μM); 64.8% in the assay on HeLa cells [3] (10 μM); 36.7% in the assay with HeLa/DDP cells [4] (2.5 μM); 46.3% in the assay with HeLa/DDP cells [4] (5 μM); 63.7% with HeLa/DDP cells [4] (10 μM).

The record behind these values is PMC10707934, “Design and Synthesis of Novel α-Methylchalcone Derivatives, Anti-Cervical Cancer Activity, and Reversal of Drug Resistance in HeLa/DDP Cells” (Molecules, 2023).
